Target: chymotrypsin (Bos taurus, UniProt P00766)
Assay: chymotrypsin inhibitory effect (procedure of Muramatsu et al; acetyl-L-tyrosine ethyl ester substrate, Hestrin method)
Type: biochemical
Conditions: 10 min preincubation, pH 8.0 Tris-HCl, 37° C., 30 min, absorbance 530 nm, read-out: Inhibitory Activity, 50% Inhibitory Concentration
Description: Some selected compounds of this invention were tested with respect to their chymotrypsin inhibitory effects.
The tests were conducted in accordance with the procedure of Muramatsu et al [The Journal of Biochemistry, 62, 408 (1967)]. A mixture was prepared which was made up of 0.1 ml of a dimethylsulfoxide solution of each test compound, 0.1 ml of water and 0.1 ml of a buffer solution containing 10 μg/ml of chymotrypsin (0.1M Tris-HCl buffer, pH 8.0). The mixture was incubated for 10 minutes, followed by addition of 0.2 ml of a buffer solution containing 25 mM of an ethyl ester of acetyl-L-tyrosine. The resulting mixture was reacted at 37° C. for 30 minutes. The remaining substrate was caused to develop a color by the Hestrin method, whereupon its absorbance was measured at 530 nm. For comparative purposes, use was made of tosylphenylalanine chloromethyl ketone (TPCK) which is known as a good inhibitor for chymotrypsin.

SMILES | IC50 [nM]
Cc1ccc2[nH]c(C)c(CC(=O)Oc3ccc(C(=O)N4CCN(C(C)C)CC4)cc3)c2c1 [Example 4] | 500
CCCCc1ccc2[nH]c(C)c(CC(=O)Oc3ccc(C(=O)N4CCN(C(C)C)CC4)cc3)c2c1 [Example 5] | 600
COc1ccc2[nH]cc(CC(=O)Oc3ccc(C(=O)N4CCN(C(C)C)CC4)cc3)c2c1 [Example 7] | 80
CC(C)N1CCN(C(=O)c2ccc(OC(=O)Cc3c[nH]c4ccccc34)cc2)CC1 [Example 14] | 6000
COc1ccc2c(c1)c(CC(=O)Oc1ccc(C(=O)N3CCN(C(C)C)CC3)cc1)c(C)n2C [Example 2] | 300
Cc1[nH]c2ccccc2c1CC(=O)Oc1ccc(C(=O)N2CCN(C(C)C)CC2)cc1 [Example 10] | 700
Cc1ccc(S(=O)(=O)NC(Cc2ccccc2)C(=O)CCl)cc1 (centres unmarked) [TPCK, tosylphenylalanine chloromethyl ketone, reference compound] | 500000
COc1ccc2[nH]c(C)c(CC(=O)Oc3ccc(C(=O)N4CCN(C(C)C)CC4)cc3)c2c1 [Example 3] | 400

Reference: US4605739A, “Benzoyl indolecarboxylates” (Kowa Co., Ltd., priority 1983, dated 1986)
